Source: patent US7754718B2 (priority 2004, dated 2010)

Columns and labels:
[1] = Cell cytotoxicity assay on MT-2 cells; format: cell-based; details: human, read-out: Cytotoxity (ID50, μM) MT-2
Method in brief: (§1)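 MT-2 and CEM cytotoxicity determined per previously reported procedures. HepG2 cells seeded at 10^4 cells/ml in MEME + 10% FBS, compound added on day 2 for 3 further days at 37° C. Viable layer stained with methylene blue, solubilized in 1% sarcosyl, A595 read.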

HSV-2 = assay: In vitro antiviral assay for HSV-2; format: cell-based, Herpes Simplex Virus 2; details: Human alphaherpesvirus 2, read-out: Antiviral Activities (EC50, μM) HSV-2
Method in brief: (§2)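 Performed according to previously reported procedures for each virus; no further conditions are given for the HSV-2, CMV, HIV or EBV assays.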

EBV = assay: In vitro antiviral assay for EBV; format: cell-based, Epstein-Barr Virus; details: human gammaherpesvirus 4, read-out: Antiviral Activities (EC50, μM) EBV
Method in brief: as §2

HSV-1 = assay: In vitro antiviral assay for HSV-1; format: cell-based, Herpes Simplex Virus 1; details: Human alphaherpesvirus 1, read-out: Antiviral Activities (EC50, μM) HSV-1
Method in brief: as §2

CMV = assay: In vitro antiviral assay for CMV; format: cell-based, cytomegalovirus; details: Human betaherpesvirus 5, read-out: Antiviral Activities (EC50, μM) CMV
Experimental: The antiviral assays for HBV, (Doong et al., 1991, Proc. Natl. Acad. Sci. U.S.A. 88:8495-8499) HSV-1, (Bastow et al., 1983, Antimicrob. Agents Chemother. 23: 914-917) HSV-2, (Bastow et al., 1983, Antimicrob. Agents Chemother. 23:914-917) EBV, (Yao et al., 1993, Antimicrob. Agents Chemother. 37:1420-1425), CMV (Andreoni et al., 2002, J. Med. Virol. 67:33-40) and HIV (Mellors et al., 1992, Mol. Pharmacol. 41: 446-451) were performed according to the previously reported procedures. Anti-HCV activities were tested in Huh-Luc/neo cell line. Cells were seeded into 48-well plates and grown until confluent. Different concentrations of drugs were added into media (DMEM, 10% dFBS) and incubated for 3 days. At the end of 3-day treatment, medium were removed and 50 μl of Passive lysis buffer (Promega) were added. Cell lysate was shaken at room temperature for 15 min. 30 μl/well of cell lysate was transferred to another 96-well plate, 100 μl/well of luciferase activity assay substrate was added into plate and read by a luminometer (Amersham) immediately.

HBV = assay: In vitro antiviral assay for HBV (Table 1); format: cell-based, Hepatitis B virus; details: Hepatitis B virus, read-out: Antiviral Activities (EC50, μM) HBV
HIV = assay: In vitro antiviral assay for HIV; format: cell-based, human immunodeficiency virus; details: Human immunodeficiency virus 1, read-out: Antiviral Activities (EC50, μM) HIV, in vitro; (T) after a value means toxic
Method in brief: as §2

[2] = Cell cytotoxicity assay on CEM cells; format: cell-based; details: human, read-out: Cytotoxity (ID50, μM) CEM
Method in brief: as §1

HCV = assay: Anti-HCV activity in Huh-Luc/neo cell line, luciferase activity after 3-day treatment; format: cell-based, Hepatitis C virus; details: Hepatitis C virus, 72 h; at 3 μM, Huh-Luc/neo cells, 3 days; read-out: HCV percent of inhibition

Row | Compound | IC50 [1] [µM] | EC50 (HSV-2) [µM] | EC50 (EBV) [µM] | EC50 (HSV-1) [µM] | EC50 (CMV) [µM] | EC50 (HBV) [µM] | EC50 (HIV) [µM] | IC50 [2] [µM] | inhibition at 3 µM (HCV) [%] | melting point
1 | O=C1OCc2c1cc1ccc3c(c1c2-c1ccc2c(c1)OCO2)OCO3 [Compound 2, 10-Benzo[1,3]dioxol-5-yl-9H-furo[3′,4′:6,7]naphtho[1,2-d][1,3]dioxol-7-one, reference compound] | 2.5 | 35 | > 20 | 2 | 7.3 | 1 | > 2.5 | 31 | 64 | 
2 | Nc1ccn([C@@H]2CS[C@H](CO)O2)c(=O)n1 [Compound 3TC, (−)-(2R,5S)-1-[2-(hydroxymethyl)oxathiolan-5-yl]cytosine] |  |  | 0.4 |  |  | 0.02 |  |  |  | 
3 | COc1ccc(-c2c3c(cc4ccc5c(c24)OCO5)C(=O)NC3)cc1OC [Compound 22, 10-(3,4-Dimethoxy-phenyl)-8,9-dihydro-1,3-dioxa-8-aza-dicyclopenta[a,g]naphthalen-7-one] | 16 | 0.5 | > 20 | 0.6 |  | 0.9 | > 16 | 5 | 80 | 258 °C (dec.)
